Experimental data: the supplement of paper PMC11061612

Tests used:
[1] = system: CCK-81 (Colorectal Carcinoma); test: combination Emax (second highest fraction inhibited in the dose matrix, 72 h); higher = more inhibition; extreme values may be limits of the assay
Summary of the method: (§1)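 Cell lines in DMEM/F12 or RPMI with 10% FBS were plated in 1536-well plates, held 24 hours at 37°C, 5% CO2, then given two-drug dose matrices for 72 hours (DMSO typically 0.2%). Viability was read by CellTiter-Glo 2.0 luminescence and scaled as inhibition from 0 (vehicle wells) to 1 (blank wells). Combination Emax is the second-highest inhibition in the matrix; Bliss excess is observed combination effect minus expected EA + EB − EA·EB, EA and EB being single-agent effects.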

[2] = system: VCaP (Prostate Carcinoma); test: as above
Summary of the method: as §1

[3] = system: CAPAN-2 (Pancreatic Carcinoma); test: as above
Summary of the method: as §1

[4] = system: TT (Thyroid Gland Carcinoma); test: as above
Summary of the method: as §1

[5] = system: ONS-76 (Other Solid Carcinomas); test: as above
Summary of the method: as §1

[6] = system: NCI-H64 (Small Cell Lung Carcinoma); test: as above
Summary of the method: as §1

[7] = system: ECC10 (Gastric Carcinoma); test: as above
Summary of the method: as §1

[8] = system: BICR22 (Oral Cavity Carcinoma); test: as above
Summary of the method: as §1

IGR-37 (Melanoma) [9] = test: as above
Summary of the method: as §1

[10] = system: NCI-H1581 (Non-Small Cell Lung Carcinoma); test: as above
Summary of the method: as §1

[11] = system: NCI-H2066 (Squamous Cell Lung Carcinoma); test: as above
Summary of the method: as §1

[12] = system: NCI-H1666 (Lung Adenocarcinoma); test: as above
Summary of the method: as §1

[13] = system: PANC-10-05 (Pancreatic Carcinoma); test: as above
Summary of the method: as §1

NY (Osteosarcoma) [14] = test: as above
Summary of the method: as §1

[15] = system: KARPAS-422 (B-Cell Non-Hodgkin's Lymphoma); test: as above
Summary of the method: as §1

[16] = system: COLO-320-HSR (Colorectal Carcinoma); test: as above
Summary of the method: as §1

U-2-OS (Osteosarcoma) [17] = test: as above
Summary of the method: as §1

FU97 (Gastric Carcinoma) [18] = test: as above
Summary of the method: as §1

[19] = system: CCK-81 (Colorectal Carcinoma); test: Bliss excess, mean over the matrix (fraction); higher = more synergy
Summary of the method: as §1

[20] = system: VCaP (Prostate Carcinoma); test: as above
Summary of the method: as §1

[21] = system: CAPAN-2 (Pancreatic Carcinoma); test: as above
Summary of the method: as §1

[22] = system: TT (Thyroid Gland Carcinoma); test: as above
Summary of the method: as §1

[23] = system: ONS-76 (Other Solid Carcinomas); test: as above
Summary of the method: as §1

[24] = system: NCI-H64 (Small Cell Lung Carcinoma); test: as above
Summary of the method: as §1

[25] = system: ECC10 (Gastric Carcinoma); test: as above
Summary of the method: as §1

[26] = system: BICR22 (Oral Cavity Carcinoma); test: as above
Summary of the method: as §1

IGR-37 (Melanoma) [27] = test: as above
Summary of the method: as §1

[28] = system: NCI-H1581 (Non-Small Cell Lung Carcinoma); test: as above
Summary of the method: as §1

[29] = system: NCI-H2066 (Squamous Cell Lung Carcinoma); test: as above
Summary of the method: as §1

[30] = system: NCI-H1666 (Lung Adenocarcinoma); test: as above
Summary of the method: as §1

[31] = system: PANC-10-05 (Pancreatic Carcinoma); test: as above
Summary of the method: as §1

NY (Osteosarcoma) [32] = test: as above
Summary of the method: as §1

[33] = system: KARPAS-422 (B-Cell Non-Hodgkin's Lymphoma); test: as above
Summary of the method: as §1

[34] = system: COLO-320-HSR (Colorectal Carcinoma); test: as above
Summary of the method: as §1

U-2-OS (Osteosarcoma) [35] = test: as above
Summary of the method: as §1

FU97 (Gastric Carcinoma) [36] = test: as above
Summary of the method: as §1
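Wherever Bliss excess, mean over the matrix is given: after 72 h of two-drug dosing.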

| SMILES | combination Emax [1] | combination Emax [2] | combination Emax [3] | combination Emax [4] | combination Emax [5] | combination Emax [6] | combination Emax [7] | combination Emax [8] | combination Emax (IGR-37 (Melanoma) [9]) | combination Emax [10] | combination Emax [11] | combination Emax [12] | combination Emax [13] | combination Emax (NY (Osteosarcoma) [14]) | combination Emax [15] | combination Emax [16] | combination Emax (U-2-OS (Osteosarcoma) [17]) | combination Emax (FU97 (Gastric Carcinoma) [18]) | Bliss excess [19] | Bliss excess [20] | Bliss excess [21] | Bliss excess [22] | Bliss excess [23] | Bliss excess [24] | Bliss excess [25] | Bliss excess [26] | Bliss excess (IGR-37 (Melanoma) [27]) | Bliss excess [28] | Bliss excess [29] | Bliss excess [30] | Bliss excess [31] | Bliss excess (NY (Osteosarcoma) [32]) | Bliss excess [33] | Bliss excess [34] | Bliss excess (U-2-OS (Osteosarcoma) [35]) | Bliss excess (FU97 (Gastric Carcinoma) [36]) |
| --- | --- | --- | --- | --- | --- | --- | --- | --- | --- | --- | --- | --- | --- | --- | --- | --- | --- | --- | --- | --- | --- | --- | --- | --- | --- | --- | --- | --- | --- | --- | --- | --- | --- | --- | --- | --- |
| Cc1c2c(nn1C)CSCc1cc(n(C)n1)CSc1cc(c3ccccc3c1)OCCCc1c(C(=O)O)n(C)c3c-2c(Cl)ccc13 [AZD5991] + CS(=O)(=O)CCNCc1ccc(-c2ccc3ncnc(Nc4ccc(OCc5cccc(F)c5)c(Cl)c4)c3c2)o1 [Lapatinib] (first compound max 1 µM, 7x7, partner max 10 µM) | 1 | 0.96 | 0.186 | 0.237 | 0.294 | 0.111 | 0.975 | 0.969 | 0.36 | 0.968 | 0.426 | 0.942 | 0.474 | 0.564 | 0.965 | 1 | 0.197 | 0.906 | 0.055 | -0.0052 | -0.0087 | 0.0128 | -0.0232 | -0.0332 | 0.0088 | 0.0948 | -0.0622 | -0.0138 | -0.0195 | 0.0641 | -0.0585 | -0.0523 | -0.0425 | 0.0422 | -0.0345 | -0.0583 |
| CN(CCO)CC[C@H](CSc1ccccc1)Nc1ccc(S(=O)(=O)NC(=O)c2ccc(N3CCC([C@@H](O)c4ccccc4-c4ccc(Cl)cc4)CC3)cc2)cc1S(=O)(=O)C(F)(F)F [AZD4320] + CC(=O)O[C@H]1C(=O)[C@@]2(C)[C@H]([C@H](OC(=O)c3ccccc3)[C@]3(O)C[C@H](OC(=O)[C@H](O)[C@@H](NC(=O)c4ccccc4)c4ccccc4)C(C)=C1C3(C)C)[C@]1(OC(C)=O)CO[C@@H]1C[C@@H]2O [Paclitaxel] (first compound max 1 µM, 7x7, partner max 3 µM) | 1 | 0.881 | 0.853 | 0.665 | 0.919 | 1 | 1 | 0.981 | 0.938 | 0.99 | 0.856 | 0.841 | 0.64 | 0.981 | 0.999 | 0.791 | 0.922 | 0.433 | -0.0433 | 0.0175 | 0.0494 | 0.184 | 0.0661 | 0.237 | 0.0272 | -0.0024 | -0.0174 | 0.0126 | 0.124 | 0.112 | -0.0275 | -0.0067 | 0.141 | 0.0041 | 0.0272 | 0.101 |
| O=C(c1cc(Cc2n[nH]c(=O)c3ccccc23)ccc1F)N1CCN(C(=O)C2CC2)CC1 [Olaparib] + Cc1c2c(nn1C)CSCc1cc(n(C)n1)CSc1cc(c3ccccc3c1)OCCCc1c(C(=O)O)n(C)c3c-2c(Cl)ccc13 [AZD5991] (first compound max 10 µM, 7x7, partner max 1 µM) | 0.785 | 0.958 | 0.044 | 0.168 | 0.17 | 0.148 | 0.738 | 0.108 | 0.151 | 0.972 | 0.2 | 0.111 | 0.159 | 0.426 | 0.967 | 0.836 | 0.0686 | 0.207 | -0.0311 | -0.0247 | -0.0426 | -0.0273 | -0.038 | 0.0017 | 0.0111 | -0.0317 | -0.0419 | 0.0183 | -0.0539 | -0.0669 | -0.0739 | -0.0239 | -0.0071 | -0.0304 | -0.0394 | -0.0169 |
